From US20230330093A1, “APPLICATION OF NITROGEN-CONTAINING SATURATED HETEROCYCLIC COMPOUND” (SHANGHAI PHARMACEUTICALS HOLDING CO., LTD., priority 2020, published 2023) come the findings set out here.

Molecules are shown by their SMILES.

The data set has as its system cynomolgus monkeys. Put plainly: 4-week repeated-dose safety study: clinical observations, mortality, body weight. Type of data set: in vivo. The conditions noted are these: for body weight gain: no statistical significance. As for the experimental part: The compound of Formula I was prepared and confirmed according to the method in CN103562191B. The 0.5% of sodium carboxymethyl cellulose (CMC-Na) was used as a vehicle. The compound of Formula I was stored at room temperature, protected from light and wetness. For cynomolgus monkey safety studies, the test substance was suspended in 0.5% CMC-Na at the relevant concentrations. The homogeneity, concentration and one week stability of prepared suspension was analyzed to ensure proper administration of the reported doses. The six month accelerated stability of active pharmaceutical ingredient (API) was tested by the inventor.
Healthy male and female cynomolgus monkeys aged 3-4 years were supplied by Hainan New Source Biotech Co. Ltd. (Hainan, China). The body weight range at the start of treatment was 3.2-5.8 kg for male and 2.5-3.7 kg for female. They were housed for a 36-day acclimation period before study. Once a day in the morning, animals eat and drink freely.
Mortality and clinical signs were evaluated daily from the beginning of the quarantine period. Each animal was examined at least twice daily for any change in behavior, reaction to treatment or illness after administration.
Observations included, but were not limited to the following: changes in skin and fur; eyes and mucous membranes; respiratory, circulatory, autonomic, central nervous systems and behavior patterns. Rectal temperature was measured before administration (twice), at 1 and 24 h after first administration, and before d26 administration and at 1 and 24 h after d26 administration. Body weight was measured every week. Food consumption was estimated for monkey every day. Ophthalmoscopy was conducted for the monkey study using a portable slit lamp (YZ2) and a direct ophthalmoscope (GFJY-01B).

Take `COC(=O)NCCCn1nc([C@@H](C)N(C(=O)[C@H]2CNCCO2)C2CC2)c2ccc(C)nc21` [compound of Formula I]: the “clinical signs of toxicity related to treatment in other animals” value (20, 100, 450 mg/kg/day for 4 weeks) was “no apparent clinical signs of toxicity”. Moreover, the body weight gain runs as follows: (high dose (450 mg/kg/day) females, controls 3.2±0.2) 2.7±0.4; (high dose (450 mg/kg/day) males, controls 4.6±0.5) 4.1±0.5. Besides, where the note is “high dose (450 mg/kg/day), nasogastric, day23”, the mortality result is listed as “Treatment related early death occurred in one high dose female”.
